# From patent US8013006B2
# Tested on: HCV replicon
# Assay: microbe, parasite or virus in culture
# Type: cell-based
# Details: Hepatitis C virus, 48 h, read-out: Replicon IC5Os
row,SMILES,IC50 [nM]
1,CCn1c(-c2ccc(NC(=O)OCCCl)cc2)c(C#N)c2ccc(OC)cc21 [Compound 637],< 500
2,CCCS(=O)(=O)Nc1ccccc1-c1c(C#N)c2ccc(OC)cc2n1CC [Compound 662],< 500
3,CCn1c(-c2ccc(N(C)S(=O)(=O)CCN3CCCC3)cc2)c(C#N)c2ccc(OC)cc21 [Compound 697],< 500
4,CCn1c(-c2ccc(N(C)S(=O)(=O)CCN3CCSCC3)cc2)c(C#N)c2ccc(OC)cc21 [Compound 698],500 to 2000
5,"COc1ccc2c(C#N)c(-c3ccc(N4CCCS4(=O)=O)cc3)n(CC3CC3)c2c1 [Compound 716, 2-[4-(1,1-dioxidoisothiazolidin-2-yl)phenyl]-1-cyclopropylmethyl-6-methoxy-1H-indole-3-carbonitrile]",500 to 2000
6,CCOC(=O)Nc1cccc(-c2c(C#N)c3ccc(OC(F)F)cc3n2CC2CC2)c1 [Compound 745],< 500
7,CCn1c(-c2ccc(NC(=O)c3ccno3)cc2)c(C#N)c2ccccc21 [Compound 755],< 500
8,CCn1c(-c2ccc(NC(=O)c3snnc3C)cc2)c(C#N)c2ccccc21 [Compound 756],< 500
9,CCC(=O)Nc1ccc(-c2c(C#N)c3ccc(OC(C)C)cc3n2CC)cc1 [Compound 759],< 500
10,CCn1c(-c2ccc(NC(=O)C3CCC3)cc2)c(C#N)c2ccc(OC(C)C)cc21 [Compound 760],< 500

# Same assay, conditions: Replicon IC50 values are determined by firefly luciferase signal; bicistronic replicon, 2 days; read-out: Replicon IC5Os
row,SMILES,IC50 [nM]
1,CCCn1c(-c2cccc(NS(=O)(=O)CC)c2)c(C#N)c2ccc(OC)cc21 [Compound 599],> 2000
2,CCCNC(=O)Nc1cccc(-c2c(C#N)c3ccc(OC)cc3n2CCC)c1 [Compound 600],> 2000
3,CCOC(=O)Nc1cc(-c2c(C#N)c3ccc(OC(C)C)cc3n2CC)ccc1OC [Compound 603],> 2000
4,CCOC(=O)Nc1ccc(F)c(-c2c(C#N)c3ccc(OC(C)C)cc3n2CC)c1 [Compound 604],> 2000
5,CCOC(=O)Nc1cccc(-c2c(C#N)c3cc(N4CCOCC4)ccc3n2CC)c1 [Compound 605],> 2000
6,CCCS(=O)(=O)Nc1ccc(-c2c(C#N)c3cc(N4CCOCC4)ccc3n2CC)cc1 [Compound 608],500 to 2000
7,CCn1c(-c2ccc(NS(=O)(=O)CC)cc2)c(C#N)c2cc(N3CCOCC3)ccc21 [Compound 609],500 to 2000
8,CCn1c(-c2ccc(NS(=O)(=O)CC(F)(F)F)cc2)c(C#N)c2cc(Cl)ccc21 [Compound 615],> 2000
9,CCNC(=O)Nc1ccc(-c2c(C#N)c3cc(Cl)ccc3n2CC)cc1 [Compound 620],500 to 2000
10,CCCn1c(-c2ccc(NC(=O)OCC)cc2)c(C#N)c2ccc(OC)cc21 [Compound 624],500 to 2000
11,CCCOC(=O)Nc1ccc(-c2c(C#N)c3ccc(OC)cc3n2CCC)cc1 [Compound 625],< 500
12,CCn1c(-c2cccc(NS(=O)(=O)CCCCl)c2)c(C#N)c2cc(Cl)ccc21 [Compound 629],> 2000
13,CC(C)CCn1c(-c2ccc(NS(C)(=O)=O)cc2)c(C#N)c2cc(Cl)ccc21 [Compound 630],500 to 2000
14,C=Cn1c(-c2ccc(NS(C)(=O)=O)cc2)c(C#N)c2ccc(OC)cc21 [Compound 632],500 to 2000
15,C=Cn1c(-c2ccc(NS(=O)(=O)CCC)cc2)c(C#N)c2ccc(OC)cc21 [Compound 634],500 to 2000
16,C=Cn1c(-c2ccc(NS(=O)(=O)CCCCl)cc2)c(C#N)c2ccc(OC)cc21 [Compound 636],< 500
17,CCCn1c(-c2cccc(NS(=O)(=O)CCC)c2)c(C#N)c2ccc(OC)cc21 [Compound 639],> 2000
18,CCCn1c(-c2ccc(NC(=O)OCCF)cc2)c(C#N)c2ccc(OC)cc21 [Compound 640],500 to 2000
19,CCCn1c(-c2ccc(N(C)S(=O)(=O)CC)cc2)c(C#N)c2ccc(OC)cc21 [Compound 643],500 to 2000
20,CCC(=O)Nc1ccc(-c2c(C#N)c3cc(OC)ccc3n2CC)cc1 [Compound 644],> 2000
21,CCn1c(-c2ccc(NC(=O)c3ccc4c(c3)OCO4)cc2)c(C#N)c2ccccc21 [Compound 645],> 2000

row,SMILES,IC50 [nM]
1,CCn1c(-c2ccc(NC(=O)c3ccco3)cc2)c(C#N)c2ccccc21 [Compound 646],500 to 2000
2,CCn1c(-c2ccc(C(=O)Nc3ccc(Cl)cc3)cc2)c(C#N)c2cc(OC)ccc21 [Compound 647],> 2000
3,CCn1c(-c2ccc(C(=O)Nc3ccc(Cl)c(Cl)c3)cc2)c(C#N)c2cc(OC)ccc21 [Compound 648],500 to 2000
4,CCCn1c(-c2ccc(N3CCCS3(=O)=O)cc2)c(C#N)c2ccc(OC)cc21 [Compound 649],500 to 2000
5,CCn1c(-c2ccc(NS(=O)(=O)CCN3CCSCC3)cc2)c(C#N)c2ccc(OC)cc21 [Compound 654],> 2000
6,COc1ccc2c(C#N)c(-c3ccc(NS(C)(=O)=O)cc3)n(CC3CCCC3)c2c1 [Compound 655],> 2000
7,CCn1c(-c2ccc(N)cc2)c(C#N)c2ccc(OC(F)(F)F)cc21 [Compound 656],> 2000
8,CCn1c(-c2ccc(NS(=O)(=O)CC)cc2)c(C#N)c2c(Cl)cccc21 [Compound 657],> 2000
9,N#Cc1c(-c2ccc(N3CCCS3(=O)=O)cc2)n(CC2CC2)c2cc(OC(F)F)ccc12 [Compound 659],500 to 2000
10,CC(C)Oc1ccc2c(C#N)c(-c3ccc(O)c(N)c3)[nH]c2c1 [Compound 663],> 2000
11,CCCOC(=O)Nc1ccc(F)c(-c2c(C#N)c3ccc(OC(C)C)cc3n2CC)c1 [Compound 664],> 2000
12,CCn1c(-c2cc(NC(=O)OCCCl)ccc2F)c(C#N)c2ccc(OC(C)C)cc21 [Compound 665],> 2000
13,CCn1c(-c2cccc(CN(C)S(C)(=O)=O)c2)c(C#N)c2ccc(OC)cc21 [Compound 673],> 2000
14,CCS(=O)(=O)Nc1ccc(-c2c(C#N)c3ccc(OC)cc3n2CCOC)cc1 [Compound 674],> 2000
15,CCn1c(-c2ccc3c(c2)CCN3)c(C#N)c2ccc(OC)cc21 [Compound 678],> 2000
16,CCCS(=O)(=O)Nc1ccc(-c2c(C#N)c3ccc(OC(F)F)cc3n2CC2CC2)cc1 [Compound 682],500 to 2000
17,N#Cc1c(-c2ccc(NS(=O)(=O)CCCCl)cc2)n(CC2CC2)c2cc(OC(F)F)ccc12 [Compound 683],500 to 2000
18,CCS(=O)(=O)N(C)c1ccc(-c2c(C#N)c3ccc(OC)cc3n2C(C)C)cc1 [Compound 684],> 2000
19,CCCn1c(-c2ccc(N(C)S(=O)(=O)CC)cc2)c(C#N)c2ccc(OC(F)F)cc21 [Compound 685],500 to 2000
20,CCS(=O)(=O)N(C)c1ccc(-c2c(C#N)c3ccc(OC)cc3n2CC2CC2)cc1 [Compound 686],500 to 2000
21,CCS(=O)(=O)N(C)c1ccc(-c2c(C#N)c3ccc(OC(F)F)cc3n2C)cc1 [Compound 687],< 500

row,SMILES,IC50 [nM]
1,COc1ccc2c(C#N)c(-c3ccc(N(C)S(C)(=O)=O)cc3)n(CC3CC3)c2c1 [Compound 688],500 to 2000
2,CCS(=O)(=O)N(C)c1ccc(-c2c(C#N)c3ccc(OC)cc3n2C)cc1 [Compound 694],500 to 2000
3,CCCn1c(-c2ccc(N(C)S(C)(=O)=O)cc2)c(C#N)c2ccc(OC)cc21 [Compound 695],500 to 2000
4,COc1ccc2c(C#N)c(-c3ccc(N(C)S(C)(=O)=O)cc3)n(C(C)C)c2c1 [Compound 696],500 to 2000
5,CCCS(=O)(=O)N1CCc2cc(-c3c(C#N)c4ccc(OC)cc4n3CC)ccc21 [Compound 703],500 to 2000
6,CCn1c(-c2cccc(NS(=O)(=O)NCCCl)c2)c(C#N)c2ccc(OC)cc21 [Compound 704],> 2000
7,CCn1c(-c2cccc(N3CCNS3(=O)=O)c2)c(C#N)c2ccc(OC)cc21 [Compound 705],> 2000
8,CCCCn1c(-c2ccc(NS(=O)(=O)CCC)cc2)c(C#N)c2ccc(OC)cc21 [Compound 708],500 to 2000
9,CCn1c(-c2ccc3[nH]ccc3c2)c(C#N)c2ccc(OC)cc21 [Compound 712],> 2000
10,N#Cc1cn(CC2CC2)c2cc(OC(F)(F)F)ccc12 [Compound 714],500 to 2000
11,CCn1c(-c2ccc(NS(C)(=O)=O)cc2)c(C#N)c2ccc(OC(F)(F)F)cc21 [Compound 715],< 500
12,COc1ccc2c(C#N)c(-c3ccc(S(=O)(=O)NC4CC4)cc3)n(CC3CCCC3)c2c1 [Compound 718],500 to 2000
13,COc1ccc2c(C#N)c(-c3ccc(S(N)(=O)=O)cc3)n(CC3CCCC3)c2c1 [Compound 719],> 2000
14,CCn1c(-c2ccc(N3CCCS3(=O)=O)cc2)c(C#N)c2ccc(OCCN3CCCC3)cc21 [Compound 728],< 500
15,CCn1c(-c2ccc(N3CCCS3(=O)=O)cc2)c(C#N)c2ccc(OCCN3CCOCC3)cc21 [Compound 730],< 500
16,N#Cc1c(-c2ccc(N)cc2)n(CC2CC2)c2cc(OC(F)F)ccc12 [Compound 733],> 2000
17,COCCOC(=O)Nc1ccc(-c2c(C#N)c3ccc(OC(F)F)cc3n2CC2CC2)cc1 [Compound 739],> 2000
18,CCNC(=O)Nc1ccc(-c2c(C#N)c3ccc(OC(F)F)cc3n2CC2CC2)cc1 [Compound 740],500 to 2000
19,CCCOC(=O)Nc1cccc(-c2c(C#N)c3ccc(OC(F)F)cc3n2CC2CC2)c1 [Compound 746],> 2000
20,CCCS(=O)(=O)N1CCc2ccc(-c3c(C#N)c4ccc(OC)cc4n3CC)cc21 [Compound 754],500 to 2000

# Same assay, conditions: bicistronic HCV replicon, determined by firefly luciferase signal, cells cultured with compound for 2 days; read-out: Replicon IC5Os
row,SMILES,IC50 [nM]
1,CCn1c(-c2ccc(NC(=O)c3ccc4nonc4c3)cc2)c(C#N)c2cc(OC)ccc21 [Compound 765],500 to 2000
2,CCS(=O)(=O)N(C(C)=O)c1ccc(-c2cc3ccc(OC)cc3n2C(=O)OC(C)(C)C)cc1 [Compound 769],> 2000
3,CCn1c(-c2cccc(N3CCNC3=O)c2)c(C#N)c2ccc(OC)cc21 [Compound 770],> 2000
4,CCCn1c(-c2ccc(N3CCCS3(=O)=O)cc2)c(C#N)c2ccc(OCCOC(C)=O)cc21 [Compound 775],500 to 2000
5,CCOc1ccc2c(C#N)c(-c3ccc(N4CCNC4=O)cc3)n(CC)c2c1 [Compound 778],< 500
6,CCCn1c(-c2cccc(N3CCCS3(=O)=O)c2)c(C#N)c2ccc(OC)cc21 [Compound 783],> 2000
7,CCn1c(N2CCC(NC(=O)OC(C)(C)C)CC2)c(C#N)c2ccc(C(F)(F)F)cc21 [Compound 786],> 2000
8,COC(=O)Nc1cccc(-c2c(C#N)c3ccc(OC)cc3n2Cc2ccccc2)c1 [Compound 787],> 2000
